Assay results taken from patent US12691127B2, “Use of glucocorticoid receptor antagonists in combination with glucocorticoids to treat adrenal insufficiency” (Corcept Therapeutics, Inc., priority 2015, dated 2026).

Legend:
[1] = system: HPA axis; experiment: Case report: recovery of the HPA axis (ACTH, cortisol, DHEA levels) in a patient with secondary adrenal insufficiency; assay type: in vivo, human
Text: The patient is a person who developed depression for which they were placed on various psychotropic medications. They developed progressive malaise, 25 pound weight gain, muscle weakness, easing bruising, hypertension and foot stress fracture. They underwent screening DEXA bone density scan because of their personal history of fracture and a family history of advanced osteoporosis and genetically confirmed hypophosphatasia in their parent. The DEXA bone density scan disclosed a T-score of −3.4 at the lumbar spine and −3.1 at the hip. […] Further testing for secondary causes of osteoporosis included 24-hour urinary free cortisol which was markedly elevated at 499 mcg/day (range 10-80 mcg/day). Plasma ACTH level was undetectable. […], they underwent uncomplicated right laparoscopic adrenalactomy and histopathology confirmed a 3.7 cm adrenal cortical adenoma. The patient underwent a unilateral procedure, leaving one adrenal gland intact. Post-operatively the patient was placed on hydrocortisone replacement, initially at a dose of 40 mg/day given in divided doses and gradually tapered to 30 mg/day over the following several months. One year after their adrenalectomy, their hydrocortisone had been further tapered to 15 mg/day, which remained their maintenance dose. During the ensuing 6 years after their adrenalectomy, the patient generally felt unwell with symptoms of episodic nausea, headaches, lightheadedness, mood swings and generalized weakness. Quarterly measurement of serum cortisol and plasma ACTH levels (performed after holding hydrocortisone for 18 hours) consistently yielded undetectable values for both parameters. During this 6 year period, they had one pregnancy, occurring 3 years after adrenalectomy and progressing to full-term delivery of a healthy child. They had two other hospitalizations (separated by 4 years) for near-syncope, malaise, nausea and vomiting (but without hypoglycemia or hypotension). Both episodes were treated with 48-hours of intravenous stress-doses of glucocorticoids and saline, followed by improvement of their symptoms and subsequent tapering of glucocorticoids to a replacement dose of hydrocortisone 15 mg/day. The failure of the HPA axis to recover six years after adrenalectomy (despite physiological steroid dosing) prompted magnetic resonance imaging of the sella to rule out structural abnormalities of the hypothalamus, infundibulum and pituitary. This MRI was unremarkable. At that time, after a balanced discussion of risk and benefit, mifepristone 150 mg every other day was initiated and the dose of hydrocortisone 15 mg/day was continued. Over the ensuing five months, the dose of mifepristone was gradually escalated to 300 mg every other day, then 300 mg daily and finally maintained at 600 mg daily. […] The dose of hydrocortisone was lowered and ultimately stopped 8 months after initiation of mifepristone. […] The pruritis was tolerable and managed with over the counter anti-histamines. At no point during treatment with mifepristone did the patient develop signs or symptoms of adrenal insufficiency. Their menses returned 3 weeks after discontinuation of mifepristone. [table] […] Recovery of the patient's HPA axis was achieved. The patient's ACTH and cortisol levels increased in response to the drug treatment.

[2] = Case report: tolerability and side effects of mifepristone in the patient; assay type: in vivo, human
Experimental: The failure of the HPA axis to recover six years after adrenalectomy (despite physiological steroid dosing) prompted magnetic resonance imaging of the sella to rule out structural abnormalities of the hypothalamus, infundibulum and pituitary. This MRI was unremarkable. At that time, after a balanced discussion of risk and benefit, mifepristone 150 mg every other day was initiated and the dose of hydrocortisone 15 mg/day was continued. Over the ensuing five months, the dose of mifepristone was gradually escalated to 300 mg every other day, then 300 mg daily and finally maintained at 600 mg daily. […] The dose of hydrocortisone was lowered and ultimately stopped 8 months after initiation of mifepristone. […] The pruritis was tolerable and managed with over the counter anti-histamines. At no point during treatment with mifepristone did the patient develop signs or symptoms of adrenal insufficiency. Their menses returned 3 weeks after discontinuation of mifepristone.

[3] = Month 1, Mife 150 mg TIW, HC 15 mg
[4] = Month 3, Mife 300 mg TIW, HC 15 mg
[5] = Month 4, Mife 300 mg daily, HC 15 mg
[6] = Month 5, Mife 600 mg daily, HC 15 mg
[7] = Month 6, Mife 600 mg daily, HC 10 mg
[8] = Month 10, Mife 0, HC 0 (after completion of treatment)
[9] = Month 11, Mife 0, HC 0 (after completion of treatment)
[10] = patient, mifepristone up to 600 mg daily
[11] = 6 years after adrenalectomy on hydrocortisone replacement alone (15 mg/day), after holding hydrocortisone for 18 hours
[12] = Month 0, Mife dose 0, HC dose 15 mg (before mifepristone)

Work on CC#C[C@]1(O)CC[C@H]2[C@@H]3CCC4=CC(=O)CCC4=C3[C@@H](c3ccc(N(C)C)cc3)C[C@@]21C [mifepristone, 17-β-hydrox-11-β-(4-dimethyl-aminophenyl)17-α-(1-propynyl)estra-4,9-dien-3-one] yielded an ACTH [1, 3] of 15 pg/mL, a Cortisol [1, 3] of less than 1 µg/dL and a DHEA [1, 3] of less than 0.05 ng/mL. For the same compound, the ACTH [1, 4] was 18 pg/mL, the Cortisol [1, 4] was less than 1 µg/dL and the DHEA [1, 4] was less than 0.05 ng/mL. It also gave an ACTH [1, 5] of 60 pg/mL, a Cortisol [1, 5] of 3.6 µg/dL and a DHEA [1, 5] of less than 0.05 ng/mL. For the same compound, the ACTH [1, 6] was 78 pg/mL, the Cortisol [1, 6] was 4.6 µg/dL and the DHEA [1, 6] was less than 0.05 ng/mL. The ACTH [1, 7] was 173 pg/mL, the Cortisol [1, 7] was 10.5 µg/dL and the DHEA [1, 7] was less than 0.05 ng/mL. It also gave an ACTH ([1]; Month 8, Mife 300 mg TIW, HC 0) of 126 pg/mL, a Cortisol ([1]; Month 8, Mife 300 mg TIW, HC 0) of 13.6 µg/dL and a DHEA ([1]; Month 8, Mife 300 mg TIW, HC 0) of less than 0.05 ng/mL. The ACTH [1, 8] was 26 pg/mL, the Cortisol [1, 8] was 13.5 µg/dL and the DHEA [1, 8] was less than 0.05 ng/mL. It also gave an ACTH [1, 9] of 45 pg/mL, a Cortisol [1, 9] of 15.3 µg/dL and a DHEA [1, 9] of 0.053 ng/mL. For the same compound, the “levels of ACTH and cortisol after completion of the treatment” value ([1]; after completion of hydrocortisone and mifepristone treatment) was “Normal levels of ACTH and cortisol were maintained”, the “treatment outcome of secondary adrenal insufficiency” value ([1]; co-administration of hydrocortisone and mifepristone) was “successfully treated” and the “recovery of the HPA axis” value ([1]; mifepristone escalated 150 mg every other day to 600 mg daily, with hydrocortisone 15 mg/day) was “rapid recovery of the HPA axis was noted”. For the same compound, the “time to rise in ACTH into the supra-normal range after starting mifepristone” value ([1]; with hydrocortisone 15 mg/day) was 4 months, the “signs or symptoms of adrenal insufficiency during treatment” value ([2]; during treatment with mifepristone) was “At no point” and the “time to return of menses after discontinuation of mifepristone” value ([2]; human, in vivo) was 3 weeks. For the same compound, the side effects [2, 10] was “amenorrhea and pruritis” and the tolerability [2, 10] was “tolerated mifepristone remarkably well”.
With C[C@]12CCC(=O)C=C1CC[C@@H]1[C@@H]2[C@@H](O)C[C@@]2(C)[C@H]1CC[C@]2(O)C(=O)CO [hydrocortisone] the “plasma ACTH level, quarterly measurement” value [1, 11] was “undetectable”, the “serum cortisol level, quarterly measurement” value [1, 11] was “undetectable” and the ACTH [1, 12] was 5 pg/mL. It also gave a Cortisol [1, 12] of less than 1 µg/dL and a DHEA [1, 12] of less than 0.05 ng/mL.
